{
  "source": "patent US20100227853A1",
  "about": "“INHIBITORS OF CYCLIC AMP PHOSPHODIESTERASES” (Trustees of Boston College, priority 2008, published 2010)",
  "key": {"[1]": {"target": "T1, PDE4D2 (Homo sapiens, UniProt Q08499)", "T1 construct": "targets used in the assays are full-length proteins (as opposed to simply the catalytic domain); expressed in transfected cells; host or cells: Schizosaccharomyces pombe", "T1 sequence (Q08499 303-809)": "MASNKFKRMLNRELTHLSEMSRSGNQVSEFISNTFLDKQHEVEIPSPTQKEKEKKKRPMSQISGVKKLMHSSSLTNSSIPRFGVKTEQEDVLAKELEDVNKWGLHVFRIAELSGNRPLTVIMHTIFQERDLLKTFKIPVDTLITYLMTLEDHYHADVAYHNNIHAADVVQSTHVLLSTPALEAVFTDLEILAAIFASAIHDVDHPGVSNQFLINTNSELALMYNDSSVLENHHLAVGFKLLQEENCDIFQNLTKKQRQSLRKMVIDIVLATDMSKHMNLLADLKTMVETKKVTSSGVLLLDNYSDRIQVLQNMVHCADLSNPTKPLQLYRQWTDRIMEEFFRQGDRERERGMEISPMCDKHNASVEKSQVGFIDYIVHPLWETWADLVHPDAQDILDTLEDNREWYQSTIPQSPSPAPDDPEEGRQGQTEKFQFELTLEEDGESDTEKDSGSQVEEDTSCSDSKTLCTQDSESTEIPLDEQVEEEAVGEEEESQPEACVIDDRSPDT", "test": "5FOA growth assay in fission yeast strain expressing PDE4D2", "format": "cell-based", "settings": "OD600 0.6; read-out: ED50 for 5FOA growth assays, PDE4D2", "experimental": "Cells were pregrown in EMM medium [MP Biomedicals (Solon, Ohio), 3% glucose, filter-sterilized to avoid carmelization, which would introduce variability into the optical density of the medium] containing from 0 mM to 2.5 mM cAMP (or either 0.5 mM or 1.0 mM cGMP). This was to repress expression of the fbp1-ura4 reporter prior to exposure of cells to 5FOA medium. Cells were grown at 30° C. to exponential phase (approximately 10^7 cells/ml). […] Starting cell concentrations ranged from 0.5×10^5 to 4×10^5 cells/ml depending on the screening strain. […] Other positive control dishes contained 5 mM cAMP in the 5FOA medium for PDEs that lack appropriate control compounds. Cultures were grown for 48 hours at 30° C., sealed in an airtight container with moist paper towels to prevent evaporation. Optical densities (OD600) of cultures were measured using a microplate reader. Bioinformatic analysis of the results to determine composite Z scores was performed as previously described (1, 3)."}, "[2]": {"target": "PDE7B (Homo sapiens, UniProt Q9NP56)", "sequence (Q9NP56 97-420 limits assumed, species assumed)": "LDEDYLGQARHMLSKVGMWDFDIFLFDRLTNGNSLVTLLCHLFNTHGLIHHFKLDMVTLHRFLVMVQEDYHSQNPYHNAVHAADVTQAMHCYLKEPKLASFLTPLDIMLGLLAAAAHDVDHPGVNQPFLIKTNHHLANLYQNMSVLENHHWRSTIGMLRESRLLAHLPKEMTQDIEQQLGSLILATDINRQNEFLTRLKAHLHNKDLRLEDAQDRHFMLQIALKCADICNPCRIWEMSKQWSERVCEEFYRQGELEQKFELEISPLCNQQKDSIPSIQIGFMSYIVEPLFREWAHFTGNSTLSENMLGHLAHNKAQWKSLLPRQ", "test": "in vitro enzyme assay, PDE7B catalytic domain from E. coli, hydrolysis of cAMP to AMP", "format": "biochemical", "set-up": "The PDE7B catalytic domain was expressed in and purified from E. coli; made in house; host or cells: E. coli", "experimental": "The PDE7B catalytic domain was expressed in and purified from E. coli and tested for activity in an in vitro enzyme assay, measuring the hydrolysis of cAMP to AMP. Four dilutions of the enzyme preparation were tested at various compound concentrations (X axis). The percent of cAMP hydrolyzed is plotted on the Y axis."}, "[3]": {"tested_on": "U937 cells", "test": "TNF alpha release by LPS-treated U937 cells", "format": "cell-based", "settings": "for TNF alpha, % vehicle control: 10 uM cmpd, 0 uM BC30"}, "[4]": {"target": "T2, PDE4B3 (Mus musculus, UniProt Q8VBU5)", "T2 construct": "targets used in the assays are full-length proteins (as opposed to simply the catalytic domain); expressed in transfected cells; host or cells: Schizosaccharomyces pombe, PDE gene integrated in place of cgs2", "T2 sequence (Q8VBU5 1-721)": "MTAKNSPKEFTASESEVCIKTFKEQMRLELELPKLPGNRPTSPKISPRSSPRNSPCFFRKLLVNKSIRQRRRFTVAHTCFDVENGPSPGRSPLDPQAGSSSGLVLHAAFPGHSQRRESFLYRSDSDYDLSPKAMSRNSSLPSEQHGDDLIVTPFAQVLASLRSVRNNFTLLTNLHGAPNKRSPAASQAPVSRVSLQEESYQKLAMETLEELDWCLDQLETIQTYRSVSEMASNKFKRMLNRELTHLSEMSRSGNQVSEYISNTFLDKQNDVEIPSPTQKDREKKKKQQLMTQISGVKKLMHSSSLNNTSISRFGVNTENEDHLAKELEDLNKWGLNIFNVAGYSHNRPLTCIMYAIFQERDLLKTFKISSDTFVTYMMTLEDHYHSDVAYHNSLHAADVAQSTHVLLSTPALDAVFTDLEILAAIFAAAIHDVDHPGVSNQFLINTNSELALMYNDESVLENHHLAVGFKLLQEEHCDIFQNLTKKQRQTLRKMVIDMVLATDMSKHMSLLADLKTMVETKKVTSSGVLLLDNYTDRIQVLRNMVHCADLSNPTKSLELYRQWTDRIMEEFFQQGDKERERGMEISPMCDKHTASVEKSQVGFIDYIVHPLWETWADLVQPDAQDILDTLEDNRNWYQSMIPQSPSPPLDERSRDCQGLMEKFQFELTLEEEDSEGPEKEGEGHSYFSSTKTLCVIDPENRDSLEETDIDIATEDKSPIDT", "test": "cAMP response in yeast strain expressing PDE4B3", "format": "cell-based, Murine", "text": "(§1) Values represent the average and SD of two or three independent experiments. […] The strains used are as in FIG. 5A, together with strain CHP1141 (PDE8A). Values represent the average and SD of two or three independent experiments.\n(§2) Thus, PDE inhibition can be indirectly quantitated by measuring the effect of a compound on cAMP levels in target yeast strains."}, "[5]": {"target": "T3, PDE4A1 (Mus musculus, UniProt O89084)", "T3 construct": "targets used in the assays are full-length proteins (as opposed to simply the catalytic domain); expressed in transfected cells; host or cells: Schizosaccharomyces pombe, PDE gene integrated in place of cgs2", "T3 sequence (O89084 1-610 isoform O89084-2)": "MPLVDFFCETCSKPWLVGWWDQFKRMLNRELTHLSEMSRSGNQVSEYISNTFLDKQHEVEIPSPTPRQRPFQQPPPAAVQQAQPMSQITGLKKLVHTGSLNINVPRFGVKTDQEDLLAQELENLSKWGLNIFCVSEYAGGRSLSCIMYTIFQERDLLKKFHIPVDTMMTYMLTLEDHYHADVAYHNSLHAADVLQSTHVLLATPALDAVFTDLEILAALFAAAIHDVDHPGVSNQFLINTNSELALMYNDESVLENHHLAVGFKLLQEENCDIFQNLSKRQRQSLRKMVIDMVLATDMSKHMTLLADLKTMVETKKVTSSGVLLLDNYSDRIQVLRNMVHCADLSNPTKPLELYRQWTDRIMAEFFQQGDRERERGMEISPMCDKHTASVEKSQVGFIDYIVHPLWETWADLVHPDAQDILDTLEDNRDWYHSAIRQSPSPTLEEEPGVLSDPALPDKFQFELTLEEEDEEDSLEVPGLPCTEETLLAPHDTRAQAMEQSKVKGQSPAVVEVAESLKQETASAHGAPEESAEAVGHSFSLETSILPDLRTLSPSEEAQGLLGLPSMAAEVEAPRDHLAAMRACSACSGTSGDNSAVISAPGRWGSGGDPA", "test": "cAMP response in yeast strain expressing PDE4A1", "format": "cell-based, Murine", "text": "as §1, §2"}, "[6]": {"target": "T1, PDE4D2", "test": "cAMP response in yeast strain expressing PDE4D2", "format": "cell-based"}, "[7]": {"target": "T4, PDE4D3 (Homo sapiens, UniProt Q08499)", "T4 construct": "targets used in the assays are full-length proteins (as opposed to simply the catalytic domain); expressed in transfected cells; host or cells: Schizosaccharomyces pombe, PDE gene integrated in place of cgs2", "T4 sequence (Q08499 1-673 isoform Q08499-2)": "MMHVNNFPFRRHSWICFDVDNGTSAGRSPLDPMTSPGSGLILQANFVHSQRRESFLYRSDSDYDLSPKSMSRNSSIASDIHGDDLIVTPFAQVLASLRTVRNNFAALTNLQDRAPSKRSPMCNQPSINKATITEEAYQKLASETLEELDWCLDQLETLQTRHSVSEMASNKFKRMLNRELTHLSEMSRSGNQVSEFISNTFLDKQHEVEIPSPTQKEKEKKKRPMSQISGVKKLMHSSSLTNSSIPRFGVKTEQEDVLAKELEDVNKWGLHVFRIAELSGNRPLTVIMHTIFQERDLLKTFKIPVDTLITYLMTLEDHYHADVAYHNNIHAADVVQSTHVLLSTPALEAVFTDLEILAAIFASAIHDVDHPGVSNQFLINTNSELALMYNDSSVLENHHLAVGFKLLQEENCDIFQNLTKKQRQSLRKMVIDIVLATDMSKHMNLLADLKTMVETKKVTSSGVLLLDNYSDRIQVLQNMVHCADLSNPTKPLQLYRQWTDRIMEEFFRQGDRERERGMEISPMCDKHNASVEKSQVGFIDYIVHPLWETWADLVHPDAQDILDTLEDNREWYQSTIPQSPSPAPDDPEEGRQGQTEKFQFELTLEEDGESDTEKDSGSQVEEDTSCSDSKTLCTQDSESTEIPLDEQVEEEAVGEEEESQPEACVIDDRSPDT", "test": "cAMP response in yeast strain expressing PDE4D3", "format": "cell-based"}, "[8]": {"tested_on": "PDE4A, PDE4B, PDE4D, PDE7A, PDE7B, PDE8A, PDE3A", "test": "Summary of PDE inhibitor profile", "set-up": "key: (1): Strong PDE7A inhibitor, weak to moderate PDE4A, 4B inhibitor; (2): Strong PDE7A and PDE4s (including PDE4D) inhibitor; (3): Strong PDE7A inhibitor", "settings": "overall classification, Table 18 footnotes"}},
  "data": [
    {"smiles": "CCN(CC)c1ncnc2sc3c(c12)CCCC3", "note": "[BC44]", "values": [
      {"measurement": "EC50", "setting": "[1]", "result": 140, "unit": "µM"}
    ]},
    {"smiles": "Cc1c(C(=O)Nc2ccc(F)cc2F)sc2ncnc(N3CCC(C)CC3)c12", "note": "[BC58]", "values": [
      {"measurement": "PDE7B, 2 uM cpm", "setting": "[2]; 2 uM compound", "result": 15093, "unit": "cpm"},
      {"measurement": "TNF alpha reduction, conclusion in words", "setting": "[3]", "result": "good PDE4 inhibitor activity"}
    ]},
    {"smiles": "Cc1sc2ncnc(Nc3ccccc3)c2c1C", "note": "[BC64]", "values": [
      {"measurement": "EC50", "setting": "[1]", "result": "> 200", "unit": "µM"}
    ]},
    {"smiles": "COC(=O)C1=C(C)N(C2CCCCC2)C(=O)/C1=C\\c1cccs1", "note": "[Compound 22]", "values": [
      {"measurement": "cAMP Response (% rolipram), 4B3", "setting": "[4]", "result": 51.00, "unit": "% rolipram"},
      {"measurement": "cAMP Response (% rolipram), 4A1", "setting": "[5]", "result": 54.00, "unit": "% rolipram"},
      {"measurement": "cAMP Response (% rolipram), 4D2", "setting": "[6]", "result": "ND ND ND 34.00 ND % rolipram"},
      {"measurement": "cAMP Response (% rolipram), 4D3", "setting": "[7]", "result": 12.00, "unit": "% rolipram"}
    ]},
    {"smiles": "COC(=O)C1=C(C)N(c2ccccc2Cl)C(=O)/C1=C\\c1cccs1", "note": "[Compound 27]", "values": [
      {"measurement": "cAMP Response (% rolipram), 4B3", "setting": "[4]", "result": 71.00, "unit": "% rolipram"},
      {"measurement": "cAMP Response (% rolipram), 4A1", "setting": "[5]", "result": 78.00, "unit": "% rolipram"},
      {"measurement": "cAMP Response (% rolipram), 4D2", "setting": "[6]", "result": "ND ND ND 11.00 ND % rolipram"},
      {"measurement": "cAMP Response (% rolipram), 4D3", "setting": "[7]", "result": 8.00, "unit": "% rolipram"},
      {"measurement": "TNF alpha, % vehicle control", "setting": "[3]; after 3 h.", "result": 75.3, "unit": "%"},
      {"measurement": "TNF alpha, % vehicle control", "setting": "[3]; after 20 h.", "result": 78.3, "unit": "%"}
    ]},
    {"smiles": "N#Cc1sc2sc(C#N)c(-c3ccco3)c2c1N", "note": "[Compound 30]", "values": [
      {"measurement": "cAMP Response, 4B3", "setting": "[4]; Table 16, unit not given", "result": 67},
      {"measurement": "cAMP Response, 4A1", "setting": "[5]; Table 16, unit not given", "result": 65.7},
      {"measurement": "IC50", "setting": "[2]; AC200 = [Compound] that doubles PDE activity, read-out: IC50 (or AC200), PDE7B", "result": 12, "unit": "µM"},
      {"measurement": "cAMP Response, 4D2", "setting": "[6]; Table 16, unit not given", "result": "ND ND ND 7.5 ND"},
      {"measurement": "TNF", "setting": "[3]; 3 HOURS", "result": 3317, "unit": "pg/mL"},
      {"measurement": "TNF, % EtOH cntrl", "setting": "[3]; 3 HOURS", "result": 68.7, "unit": "%"},
      {"measurement": "TNF", "setting": "[3]; 20 HOURS", "result": 7481, "unit": "pg/mL"},
      {"measurement": "TNF, % EtOH cntrl", "setting": "[3]; 20 HOURS", "result": 54.7, "unit": "%"}
    ]},
    {"smiles": "COc1ccc2c(c1)[C@@]1(C)CCC[C@](C)(CO)C1CC2", "note": "(stereo partly drawn) [Compound 2067M03]", "values": [
      {"measurement": "PDE inhibitor profile (Table 18)", "setting": "[8]", "result": "2067M03 (1)"}
    ]},
    {"smiles": "Cc1ccc2c(c1)CCC1CC(=O)CC[C@]21C", "note": "(stereo partly drawn) [Compound 2158J12]", "values": [
      {"measurement": "PDE inhibitor profile (Table 18)", "setting": "[8]", "result": "2158J12 (2)"}
    ]}
  ]
}
